Assay results reported in patent US9963445B2, “Chemical compounds” (SYNGENTA PARTICIPATIONS AG, priority 2013, dated 2018).

Experiments:
Assay type in all cases: in vivo
Setaria faberi [1] = assay: Pre-emergence herbicidal activity, glasshouse pot test; conditions: pre-emergence spray, rate 1000 g/ha, evaluated after 13 days, scale 0-5
Procedure: (§1) Seeds of a variety of test species were sown in standard soil in pots. After cultivation for one day (pre-emergence) under controlled conditions in a glasshouse (at 24/16° C., day/night; 14 hours light; 65% humidity), the plants were sprayed with an aqueous spray solution derived from the formulation of the technical active ingredient in acetone/water (50:50) solution containing 0.5% Tween 20 (polyoxyethelyene sorbitan monolaurate, CAS RN 9005-64-5). The test plants were then grown in a glasshouse under controlled conditions (at 24/16° C., day/night; 14 hours light; 65% humidity) and watered twice daily. After 13 days, the test was evaluated (5=total damage to plant; 0=no damage to plant).
(§2) ABUTH=Abutilon theophrasti; SOLNI=Solanum nigrum; AMARE=Amaranthus retroflexus; SETFA=Setaria faberi; ALOMY=Alopecurus myosuroides; ECHCG=Echinochloa crus-galli, ZEAMX=zea mays.

Abutilon theophrasti [2] = assay: as above; conditions: pre-emergence spray, rate 1000 g/ha, evaluated after 13 days, scale 0-5
Procedure: as §1, §2

Echinochloa crus-galli [3] = assay: as above; conditions: pre-emergence spray, rate 1000 g/ha, evaluated after 13 days, scale 0-5
Procedure: as §1, §2

zea mays [4] = assay: as above; conditions: pre-emergence spray, rate 1000 g/ha, evaluated after 13 days, scale 0-5
Procedure: as §1, §2

Amaranthus retroflexus [5] = assay: as above; conditions: pre-emergence spray, rate 1000 g/ha, evaluated after 13 days, scale 0-5
Procedure: as §1, §2

Alopecurus myosuroides [6] = assay: as above; conditions: pre-emergence spray, rate 1000 g/ha, evaluated after 13 days, scale 0-5
Procedure: as §1, §2

Setaria faberi [7] = assay: Post-emergence herbicidal activity, glasshouse pot test; design: key: 0 = no damage to plant, 5 = total damage to plant; conditions: Application post-emergence, rate 1000 g/ha, evaluated after 13 days
Procedure: (§3) Seeds of a variety of test species were sown in standard soil in pots. After 8 days cultivation (post-emergence) under controlled conditions in a glasshouse (at 24/16° C., day/night; 14 hours light; 65% humidity), the plants were sprayed with an aqueous spray solution derived from the formulation of the technical active ingredient in acetone/water (50:50) solution containing 0.5% Tween 20 (polyoxyethelyene sorbitan monolaurate, CAS RN 9005-64-5). The test plants were then grown in a glasshouse under controlled conditions (at 24/16° C., day/night; 14 hours light; 65% humidity) and watered twice daily. After 13 days, the test was evaluated (5=total damage to plant; 0=no damage to plant).
as §2

Abutilon theophrasti [8] = assay: as above; design: key: 0 = no damage to plant, 5 = total damage to plant; conditions: Application post-emergence, rate 1000 g/ha, evaluated after 13 days
Procedure: as §3, §2

Echinochloa crus-galli [9] = assay: as above; design: key: 0 = no damage to plant, 5 = total damage to plant; conditions: Application post-emergence, rate 1000 g/ha, evaluated after 13 days
Procedure: as §3, §2

zea mays [10] = assay: as above; design: key: 0 = no damage to plant, 5 = total damage to plant; conditions: Application post-emergence, rate 1000 g/ha, evaluated after 13 days
Procedure: as §3, §2

Amaranthus retroflexus [11] = assay: as above; design: key: 0 = no damage to plant, 5 = total damage to plant; conditions: Application post-emergence, rate 1000 g/ha, evaluated after 13 days
Procedure: as §3, §2

Alopecurus myosuroides [12] = assay: as above; design: key: 0 = no damage to plant, 5 = total damage to plant; conditions: Application post-emergence, rate 1000 g/ha, evaluated after 13 days
Procedure: as §3, §2

COC1=C(C)C(O)N(c2cc(C(F)(F)Cl)ccn2)C1=O (stereo not drawn) [AI16]
SETFA damage score, application pre-emergence (Setaria faberi [1]): 5
ABUTH damage score, application pre-emergence (Abutilon theophrasti [2]): 1
ECHCG damage score, application pre-emergence (Echinochloa crus-galli [3]): 5
ZEAMX damage score, application pre-emergence (zea mays [4]): 2
AMARE damage score, application pre-emergence (Amaranthus retroflexus [5]): 5
ALOMY damage score, application pre-emergence (Alopecurus myosuroides [6]): 3
SETFA herbicidal damage score (Setaria faberi [7]): 5
ABUTH herbicidal damage score (Abutilon theophrasti [8]): 5
ECHCG herbicidal damage score (Echinochloa crus-galli [9]): 5
ZEAMX herbicidal damage score (zea mays [10]): 3
AMARE herbicidal damage score (Amaranthus retroflexus [11]): 5
ALOMY herbicidal damage score (Alopecurus myosuroides [12]): 4

COC1=C(C)C(O)N(c2cc3c(cn2)CCCC3)C1=O (stereo not drawn) [AI7]
SETFA damage score, application pre-emergence (Setaria faberi [1]): 5
ABUTH damage score, application pre-emergence (Abutilon theophrasti [2]): 1
ECHCG damage score, application pre-emergence (Echinochloa crus-galli [3]): 5
ZEAMX damage score, application pre-emergence (zea mays [4]): 0
AMARE damage score, application pre-emergence (Amaranthus retroflexus [5]): 3
ALOMY damage score, application pre-emergence (Alopecurus myosuroides [6]): 2
SETFA herbicidal damage score (Setaria faberi [7]): 5
ABUTH herbicidal damage score (Abutilon theophrasti [8]): 4
ECHCG herbicidal damage score (Echinochloa crus-galli [9]): 5
ZEAMX herbicidal damage score (zea mays [10]): 1
AMARE herbicidal damage score (Amaranthus retroflexus [11]): 3
ALOMY herbicidal damage score (Alopecurus myosuroides [12]): 3

COC1=C(C)C(O)N(c2ccc(NC(=O)C(C)(C)C)cn2)C1=O (stereo not drawn) [AI26]
SETFA damage score, application pre-emergence (Setaria faberi [1]): 5
ABUTH damage score, application pre-emergence (Abutilon theophrasti [2]): 5
ECHCG damage score, application pre-emergence (Echinochloa crus-galli [3]): 5
ZEAMX damage score, application pre-emergence (zea mays [4]): 2
AMARE damage score, application pre-emergence (Amaranthus retroflexus [5]): 5
ALOMY damage score, application pre-emergence (Alopecurus myosuroides [6]): 4
SETFA herbicidal damage score (Setaria faberi [7]): 5
ABUTH herbicidal damage score (Abutilon theophrasti [8]): 5
ECHCG herbicidal damage score (Echinochloa crus-galli [9]): 5
ZEAMX herbicidal damage score (zea mays [10]): 5
AMARE herbicidal damage score (Amaranthus retroflexus [11]): 5
ALOMY herbicidal damage score (Alopecurus myosuroides [12]): 5

CCOc1nc(N2C(=O)C(Cl)=C(C)C2O)ncc1C#N (stereo not drawn) [DF4]
SETFA damage score, application pre-emergence (Setaria faberi [1]): 0
ABUTH damage score, application pre-emergence (Abutilon theophrasti [2]): 0
ECHCG damage score, application pre-emergence (Echinochloa crus-galli [3]): 0
ZEAMX damage score, application pre-emergence (zea mays [4]): 0
AMARE damage score, application pre-emergence (Amaranthus retroflexus [5]): 0
ALOMY damage score, application pre-emergence (Alopecurus myosuroides [6]): 0
SETFA herbicidal damage score (Setaria faberi [7]): 0
ABUTH herbicidal damage score (Abutilon theophrasti [8]): 0
ECHCG herbicidal damage score (Echinochloa crus-galli [9]): 0
ZEAMX herbicidal damage score (zea mays [10]): 0
AMARE herbicidal damage score (Amaranthus retroflexus [11]): 0
ALOMY herbicidal damage score (Alopecurus myosuroides [12]): 0

CCOC(=O)C(C)(C)c1cc(N2C(=O)C(Cl)=C(C)C2O)ncn1 (stereo not drawn) [CF11]
SETFA damage score, application pre-emergence (Setaria faberi [1]): 4
ABUTH damage score, application pre-emergence (Abutilon theophrasti [2]): 5
ECHCG damage score, application pre-emergence (Echinochloa crus-galli [3]): 5
ZEAMX damage score, application pre-emergence (zea mays [4]): 2
AMARE damage score, application pre-emergence (Amaranthus retroflexus [5]): 4
ALOMY damage score, application pre-emergence (Alopecurus myosuroides [6]): 2
SETFA herbicidal damage score (Setaria faberi [7]): 5
ABUTH herbicidal damage score (Abutilon theophrasti [8]): 5
ECHCG herbicidal damage score (Echinochloa crus-galli [9]): 5
ZEAMX herbicidal damage score (zea mays [10]): 3
AMARE herbicidal damage score (Amaranthus retroflexus [11]): 2
ALOMY herbicidal damage score (Alopecurus myosuroides [12]): 5

COC1=C(OC)C(O)N(c2cc(C(F)(F)F)ncn2)C1=O (stereo not drawn) [CK4]
SETFA damage score, application pre-emergence (Setaria faberi [1]): 5
ABUTH damage score, application pre-emergence (Abutilon theophrasti [2]): 5
ECHCG damage score, application pre-emergence (Echinochloa crus-galli [3]): 4
ZEAMX damage score, application pre-emergence (zea mays [4]): 3
AMARE damage score, application pre-emergence (Amaranthus retroflexus [5]): 4
ALOMY damage score, application pre-emergence (Alopecurus myosuroides [6]): 4
SETFA herbicidal damage score (Setaria faberi [7]): 5
ABUTH herbicidal damage score (Abutilon theophrasti [8]): 5
ECHCG herbicidal damage score (Echinochloa crus-galli [9]): 5
ZEAMX herbicidal damage score (zea mays [10]): 4
AMARE herbicidal damage score (Amaranthus retroflexus [11]): 3
ALOMY herbicidal damage score (Alopecurus myosuroides [12]): 5

COc1nnc(N2C(=O)C(Cl)=C(C)C2O)cc1C (stereo not drawn) [BF6]
SETFA damage score, application pre-emergence (Setaria faberi [1]): 3
ABUTH damage score, application pre-emergence (Abutilon theophrasti [2]): 4
ECHCG damage score, application pre-emergence (Echinochloa crus-galli [3]): 5
ZEAMX damage score, application pre-emergence (zea mays [4]): 2
AMARE damage score, application pre-emergence (Amaranthus retroflexus [5]): 5
ALOMY damage score, application pre-emergence (Alopecurus myosuroides [6]): 3
SETFA herbicidal damage score (Setaria faberi [7]): 5
ABUTH herbicidal damage score (Abutilon theophrasti [8]): 5
ECHCG herbicidal damage score (Echinochloa crus-galli [9]): 5
ZEAMX herbicidal damage score (zea mays [10]): 4
AMARE herbicidal damage score (Amaranthus retroflexus [11]): 5
ALOMY herbicidal damage score (Alopecurus myosuroides [12]): 5

CCc1cc(N2C(=O)C(Cl)=C(C)C2O)nnc1Cl (stereo not drawn) [BF13]
SETFA damage score, application pre-emergence (Setaria faberi [1]): 5
ABUTH damage score, application pre-emergence (Abutilon theophrasti [2]): 2
ECHCG damage score, application pre-emergence (Echinochloa crus-galli [3]): 4
ZEAMX damage score, application pre-emergence (zea mays [4]): 1
AMARE damage score, application pre-emergence (Amaranthus retroflexus [5]): 4
ALOMY damage score, application pre-emergence (Alopecurus myosuroides [6]): 2
SETFA herbicidal damage score (Setaria faberi [7]): 5
ABUTH herbicidal damage score (Abutilon theophrasti [8]): 3
ECHCG herbicidal damage score (Echinochloa crus-galli [9]): 5
ZEAMX herbicidal damage score (zea mays [10]): 1
AMARE herbicidal damage score (Amaranthus retroflexus [11]): 3
ALOMY herbicidal damage score (Alopecurus myosuroides [12]): 4

CC1=C(Cl)C(=O)N(c2cc(OC(C)C)ncn2)C1O (stereo not drawn) [CF5]
SETFA damage score, application pre-emergence (Setaria faberi [1]): 5
ABUTH damage score, application pre-emergence (Abutilon theophrasti [2]): 4
ECHCG damage score, application pre-emergence (Echinochloa crus-galli [3]): 3
ZEAMX damage score, application pre-emergence (zea mays [4]): 2
AMARE damage score, application pre-emergence (Amaranthus retroflexus [5]): 4
ALOMY damage score, application pre-emergence (Alopecurus myosuroides [6]): 3
SETFA herbicidal damage score (Setaria faberi [7]): 5
ABUTH herbicidal damage score (Abutilon theophrasti [8]): 5
ECHCG herbicidal damage score (Echinochloa crus-galli [9]): 5
ZEAMX herbicidal damage score (zea mays [10]): 2
AMARE herbicidal damage score (Amaranthus retroflexus [11]): 4
ALOMY herbicidal damage score (Alopecurus myosuroides [12]): 4

CC(=O)OC1C(C)=C(Cl)C(=O)N1c1cc(C(F)(F)F)ccn1 (stereo not drawn) [AF10]
SETFA damage score, application pre-emergence (Setaria faberi [1]): 4
ABUTH damage score, application pre-emergence (Abutilon theophrasti [2]): 5
ECHCG damage score, application pre-emergence (Echinochloa crus-galli [3]): 5
ZEAMX damage score, application pre-emergence (zea mays [4]): 0
AMARE damage score, application pre-emergence (Amaranthus retroflexus [5]): 5
ALOMY damage score, application pre-emergence (Alopecurus myosuroides [6]): 3
SETFA herbicidal damage score (Setaria faberi [7]): 5
ABUTH herbicidal damage score (Abutilon theophrasti [8]): 5
ECHCG herbicidal damage score (Echinochloa crus-galli [9]): 5
ZEAMX herbicidal damage score (zea mays [10]): 4
AMARE herbicidal damage score (Amaranthus retroflexus [11]): 5
ALOMY herbicidal damage score (Alopecurus myosuroides [12]): 5

COC1=C(C)C(O)N(c2ccc(N)cn2)C1=O (stereo not drawn) [AI28]
SETFA damage score, application pre-emergence (Setaria faberi [1]): 1
ABUTH damage score, application pre-emergence (Abutilon theophrasti [2]): 2
ECHCG damage score, application pre-emergence (Echinochloa crus-galli [3]): 0
ZEAMX damage score, application pre-emergence (zea mays [4]): 1
AMARE damage score, application pre-emergence (Amaranthus retroflexus [5]): 1
ALOMY damage score, application pre-emergence (Alopecurus myosuroides [6]): 1
SETFA herbicidal damage score (Setaria faberi [7]): 1
ABUTH herbicidal damage score (Abutilon theophrasti [8]): 1
ECHCG herbicidal damage score (Echinochloa crus-galli [9]): 1
ZEAMX herbicidal damage score (zea mays [10]): 1
AMARE herbicidal damage score (Amaranthus retroflexus [11]): 1
ALOMY herbicidal damage score (Alopecurus myosuroides [12]): 1
